Columns and labels:
EY2C9 = test: ELISA on solid-phase lipid (ligand)-coated plate: EY2C9 binding in presence of β2-GPI; design: species or system human
Protocol: Binding to extracted lipids: A microtiter plate (Immulon 1B, Dynex Technologies Inc.) was coated with lipids extracted from LDLs (50 μg/mL, 50 μL/well) by ethanol evaporation. The wells were blocked with PBS containing 1% BSA for one hour and the wells were incubated with 30 μg/mL of β2-GPI for one hour. Then, β2-GPI binding was detected using Cof-22 and HRP-labeled anti-mouse IgG antibodies. Alternatively, an anti-β2-GPI autoantibody (Cof-22, WB-CAL-1, or EY2C9) was diluted with a 0.3% BSA-containing PBS, and the diluted antibody was added to the coated plate (1.0 μg/mL, 100 μL/well) and incubated with β2-GPI (15 μg/mL) for one hour. The binding of the antibody was detected by an HRP-labeled anti-mouse IgG /or an anti-human IgM. The color was developed with H2O2 and o-phenylenediamine, and OD was measured at 490 nm. Between these steps, extensive washing were done using PBS containing 0.05% Tween 20.
Synthesized oxLig-1 (50 μg/mL, 50 μL/well) was adsorbed by evaporation on a polystyrene plate (Immulon 1B; Dynex Technologies Inc.), and the plate was then blocked with 1% BSA. Serum samples (diluted 1:100 with PBS containing 0.3% BSA) were incubated in the wells with β2-GPI (15 μg/mL) or other proteins for one hour at room temperature. Antibody binding was detected with HRP-labeled anti-human IgG. Further steps were performed through a method as described in “anti-β2-GPI ELISA.”
CL (50 μg/mL, 50 μL/well) was adsorbed on a polystyrene plate (Immulon 1B), and further steps were performed through a method as described in “ELISA for antibodies against a protein-oxLig-1 complex.”

J774A.1 cells = test: Liposome binding to macrophages (3H-labeled liposomes, 4° C.); assay type: cell-based, murine
Protocol: FIG. 10. Effect of phosphatidylserine (PS) or oxLig-1 content on the binding of liposomes to macrophages. A monolayer of J774.A1 cells was incubated for 2 hours at 4° C. with Celgrosser-P medium containing ^3H-labeled liposomes (50 nmol lipid/well). Open circle represents PS-liposomes; closed circle represents PS-Chol-liposomes; open square represents oxLig-1-liposomes; and closed square represents oxLig-1-Chol-liposomes. Data are indicated as the mean± SD of triplicate samples.
FIG. 11. β2-GPI and anti-β2-GPI monoclonal antibody-dependent binding of ligand-containing liposomes to macrophage. A monolayer of J774.A1 cells was incubated for 2 hours at 4° C. with Celgrosser-P medium containing ^3H-labeled liposomes (50 nmol lipid/well) and WB-CAL-1, in the presence or absence of β2-GPI (200 μg/ml). • A: Binding of PS-liposomes (PS: 50 mol %,) to J774.A1. cells in the presence (closed square) or absence (open square) of β2-GPI (200 μg/ml) • B: Binding of oxLig-1-liposomes (oxLig-1: 40 mol %) to J774.A1 cells in the presence (black bar) or absence (white bar) of β2-GPI (200 μg/ml). • C: A monolayer of J774.A1 cells was incubated for 2 hours at 4° C. with Celgrosser-P medium containing ^3H-labeled synthesized oxLig-1-liposomes (50 nmol lipid/well) and WB-CAL-1, in the presence or absence of β2-GPI (200 μg/ml). Binding of synthesized oxLig-1-liposomes in the absence of β2-GPI and WB-CAL-1 (open circle), binding of synthesized oxLig-1-liposomes in the presence of β2-GPI (open square), binding of synthesized oxLig-1-liposomes in the presence of WB-CAL-1 (closed square), and binding of synthesized oxLig-1-liposomes in the presence of both β2-GPI and WB-CAL-1 (closed circle). Data are indicated as the mean ± SD of triplicate samples.
A monolayer of J774.A1 cells was incubated for 2 hours at 4° C. with Celgrosser-P medium containing [^3H]-labeled liposomes (containing a predetermined ligand, 50 nmol lipid/well). DPPS-containing liposomes (open squares), oxLig-1-containing liposomes (closed squares), oxLig-2-containing liposomes (closed circles), and 13-COOH-7KC-containing liposomes (closed triangles). Data are indicated as mean± SD of triplicate samples.
A monolayer of J774.A1 cells was incubated for 2 hours at 4° C. with Celgrosser-P medium containing [^3H]-labeled liposomes (containing a predetermined ligand (30 mmol %), 50 nmol lipid/well) and in the presence (black bars) or absence (white bars) of β2-GPI (200 μg/mL) and WB-CAL-1 ([…]).
A monolayer culture of murine macrophage-like cells (J774A.1) obtained from Riken Cell Bank (Tsukuba) was maintained in RPMI 1640 medium supplemented with 10% fetal carf serum (FCS). For binding experiments, the cells (8×10^5 cells/mL, RPMI1640) were dispensed in an amount of 1 mL/well into a 12-well culture plate (Sumitomo Bakelite Co., Ltd.) and were incubated for 24 hours at 37° C., then the culture broth was replaced with Celgrosser-P medium (Sumitomo Pharmaceutical Co.). After one hour of preincubation at 37° C., 50 μL of liposomes (50 nmol lipid/well) with or without β2-GPI (200 μg/mL) and WB-CAL-1 (100 μg/mL) were added to each culture, and the cells were incubated at 4° C. and/or 37° C. The wells were next washed with chilled PBS, and the cells were lysed by adding 1 mL of 0.1N NaOH. An aliquot was taken for determination of cellular proteins and of radioactivity associated with the cells. Protein concentration was determined in a manner as described above.

## CC(C)CCC[C@@H](C)[C@H]1CC[C@H]2[C@@H]3C(=O)C=C4C[C@@H](OC(=O)CCCCCCCC(=O)O)CC[C@]4(C)[C@H]3CC[C@]12C [oxLig-1, 9-oxo-9-(7-ketocholest-5-en-3β-yloxy)nonanoic acid]
EY2C9; Experiment 1, Absorbance, mean ± SD, n = 3, solid-phase lipid, β2-GPI 15 μg/mL
  Binding of β2-GPI-dependent aCL, EY2C9: 0.915 ± 0.072
EY2C9; absorbance at 490 nm, mean ± SD (n = 3), solid-phase ligand not methylated
  EY2C9 binding, No treatment: 1.458 +/− 0.062
J774A.1 cells; J774A.1 cells, 2 hours at 4° C., 50 nmol lipid/well, without β2-GPI and antibody, result in words
  direct binding of liposomes to macrophages: relatively low or negligible small
J774A.1 cells; liposomes containing the ligand, compared with cholesteryl linoleate-liposomes (control), FIG. 20, result in words
  uptake of ligand-containing liposomes to J774A.1 cells in the presence of both β2-GPI and WB-CAL-1: significantly enhanced
J774A.1 cells; synthesized oxLig-1-liposomes, J774A.1 cells
  ligand concentration in liposomes at which binding to macrophages reached almost plateau: 10 mol %
